Laboratory results: ChEMBL document CHEMBL5385962, “Beyond inhibition against the PD-1/PD-L1 pathway: development of PD-L1 inhibitors targeting internalization and degradation of PD-L1” (RSC Med Chem, 2024)

Experiments:
BGC-823 = experiment: PD-L1 degradation in human PD-L1 […] BGC-823 cells assessed as PD-L1 degradation rate at 10 to 20 uM incubated for 5 days by flow cytometry relative to control; settings: dose 10-20 µM, time 5 day
A-375 = experiment: Antiproliferative activity against human A-375 cells assessed as reduction in cell viability; format: functional, cell-based
B16-F10 = experiment: Antiproliferative activity against mouse B16-F10 cells assessed as reduction in cell viability; format: functional, cell-based
MC-38 [1] = experiment: Antitumor activity against mouse MC38 cells xenografted in BALB/c nude mouse assessed as inhibition of tumor growth at 20 mg/kg, po BID administered twice daily for 14 days relative to control; format: functional; parameters: scale not given: the % may be the effect or the level left; settings: time 14 day
MC-38 [2] = experiment: Antitumor activity against mouse MC38 cells xenografted in BALB/c nude mouse assessed as inhibition of tumor growth at 2 mg/kg, po BID administered twice daily for 14 days relative to control; format: functional; parameters: scale not given: the % may be the effect or the level left; settings: time 14 day
MC-38 [3] = experiment: Antitumor activity against mouse MC38 cells xenografted in BALB/c nude mouse assessed as inhibition of tumor growth at 200 mg/kg, po BID administered twice daily for 14 days relative to control; format: functional; parameters: scale not given: the % may be the effect or the level left; settings: time 14 day
[4] = biological target: Programmed cell death 1 ligand 1 (Mus musculus) (UniProt Q9EP73); experiment: Induction of PD-L1 degradation in mouse B16-F10 cells
[5] = biological target: Programmed cell death 1 ligand 1 (Mus musculus) (UniProt Q9EP73); experiment: Induction of PD-L1 degradation in mouse CT26 cells
[6] = biological target: Programmed cell death protein 1/Programmed cell death 1 ligand 1 (Homo sapiens, UniProt Q9NZQ7); experiment: Inhibition of PD-1/PD-L1 interaction (unknown origin) incubated for 24 hrs by HTRF assay; format: protein-complex assay
[7] = Antitumor activity against humanized mouse MC38-hPD-L1 cells implanted in hPD-1 knockin C57BL/6 mouse assessed as reduction in tumor cell proliferation at 10 mg/kg, ip administered for 7 days starting from day 7 post tumor implantation by flow cytometry analysis relative to control; parameters: scale not given: the % may be the effect or the level left; settings: time 7 day

Sequence of Programmed cell death protein 1/Programmed cell death 1 ligand 1 (Q15116 whole entry): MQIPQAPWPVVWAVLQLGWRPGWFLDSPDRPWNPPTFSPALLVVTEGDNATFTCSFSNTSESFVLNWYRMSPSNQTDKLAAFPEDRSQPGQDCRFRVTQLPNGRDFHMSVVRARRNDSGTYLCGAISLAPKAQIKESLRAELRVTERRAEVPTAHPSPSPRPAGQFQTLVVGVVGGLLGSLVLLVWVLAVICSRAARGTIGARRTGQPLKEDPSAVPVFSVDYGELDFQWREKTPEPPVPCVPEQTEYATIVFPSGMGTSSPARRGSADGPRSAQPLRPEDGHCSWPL
Sequence of Programmed cell death protein 1/Programmed cell death 1 ligand 1 (Q9NZQ7 whole entry): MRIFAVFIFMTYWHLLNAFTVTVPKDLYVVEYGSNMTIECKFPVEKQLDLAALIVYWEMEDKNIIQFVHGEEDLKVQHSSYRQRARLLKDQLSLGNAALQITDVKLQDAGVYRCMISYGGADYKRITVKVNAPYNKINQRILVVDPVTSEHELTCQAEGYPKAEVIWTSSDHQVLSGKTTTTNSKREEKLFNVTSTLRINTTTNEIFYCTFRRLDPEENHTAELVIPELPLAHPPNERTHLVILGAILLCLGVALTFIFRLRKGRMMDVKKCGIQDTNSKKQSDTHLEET

Cc1nc(C)c(C(=O)OCc2ccccc2)c(CC(C)(C)C)c1C(=O)OCc1ccccc1
PD-L1 degradation rate (BGC-823): 66.99%

COc1cc(OCc2cccc(-c3ccccc3)c2C)cc(OC)c1CNCCNC(=O)c1cn(CCOCCOCCOCCNc2cccc3c2C(=O)N(C2CCC(=O)NC2=O)C3=O)nn1 (stereo not given)
IC50 (A-375): 8.07 µM | IC50 (B16-F10): 14 µM

Cc1c(Nc2nccc3cc(CN4CC[C@@H](O)C4)cnc23)cccc1-c1cccc(-c2nc3cc(CN4CC[C@@H](C(=O)O)C4)cc(C#N)c3o2)c1C
Activity (MC-38 [1]): 66% | Activity (MC-38 [2]): 32% | Activity (MC-38 [3]): 69%

Cc1c(COc2cc(OCc3cccc(C#N)c3)c(CN3C[C@H](O)C[C@@H]3C(=O)O)cc2Cl)cccc1-c1ccc2c(c1)OCCO2
DC50 [4]: 0.39 µM | DC50 [5]: 0.35 µM

Cc1c(NC(=O)c2nc3c(n2C)CCN(C[C@H](C)O)C3)cccc1-c1cccc(NC(=O)c2nc3c(n2C)CCN(C)C3)c1Cl
IC50 [6]: < 0.001 µM

Cc1c(NC(=O)c2ccc(CNCCO)cn2)cccc1-c1cccc(NC(=O)c2ccc(CNCCO)cn2)c1C
Activity [7]: 60.4%
